Assay results reported in PMC3612106, “Metabolism of BYZX in Human Liver Microsomes and Cytosol: Identification of the Metabolites and Metabolic Pathways of BYZX” (PLoS ONE, 2013).
Where two headings read alike, the source gives them in different places.

Columns and labels:
CYP2C8 = target: T1, CYP2C8 (Homo sapiens, UniProt P10632); test: Incubation and kinetics with recombinant human CYP2C8; type: in vitro ADME; conditions: for K m of N-des-ethylation: recombinant CYP2C8 0.1 mg/mL
T1 construct: purchased BD Gentest (Woburn, MA); host or cells: baculovirus-insect cells
T1 sequence (P10632 1-490): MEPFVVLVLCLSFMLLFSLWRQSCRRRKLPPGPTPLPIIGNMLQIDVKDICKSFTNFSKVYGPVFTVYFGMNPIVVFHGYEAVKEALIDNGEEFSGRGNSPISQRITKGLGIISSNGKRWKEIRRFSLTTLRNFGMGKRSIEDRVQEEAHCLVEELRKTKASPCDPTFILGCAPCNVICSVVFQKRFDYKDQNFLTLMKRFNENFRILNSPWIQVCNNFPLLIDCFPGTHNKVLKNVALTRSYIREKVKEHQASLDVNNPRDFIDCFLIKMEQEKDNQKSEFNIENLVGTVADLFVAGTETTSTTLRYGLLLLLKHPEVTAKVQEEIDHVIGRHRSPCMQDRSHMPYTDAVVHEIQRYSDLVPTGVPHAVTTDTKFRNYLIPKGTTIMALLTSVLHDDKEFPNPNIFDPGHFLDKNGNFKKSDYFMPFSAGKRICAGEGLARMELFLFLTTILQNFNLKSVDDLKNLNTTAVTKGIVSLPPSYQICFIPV
Method: (§1) Commercial baculovirus-insect cell-expressed human CYPs (0.1 mg/mL) including CYP1A2, 2A6, 2B6, 2C8, 2C9, 2C19, 2D6, 2E1 and 3A4 were incubated with 20 µM BYZX and 3 µM M2 in the aforementioned method respectively. After 40 min 1 volume of ice cold methanol was added to terminate the reaction. The mixture was vortexed for 1 min and centrifuged at 13 000 rpm for 15 min. 7 µL of the supernatant was injected into the LC-MS system for analysis.
(§2) The kinetics studies were performed using human liver cytosol, HLMs, and recombinant human CYP3A4 and CYP2C8. Before the kinetic study, the incubation time and the enzyme concentration for linear formation of metabolites were optimized. The concentrations of cytosol, HLMs, CYP3A4 and CYP2C8 protein were 0.4, 0.4, 0.04 and 0.1 mg/mL, respectively. The incubation times of HLMs, CYP3A4 and CYP2C8 were […], respectively. […] The following equation was applied, assuming a Michaelis–Menten equation: V = V max× [S]/(K m+[S]), where V is the rate of reaction, V max is the maximum velocity, K m is the Michaelis constant (substrate concentration at half of V max), and [S] is the substrate concentration. Eadie-Hofstee plot was used to confirm allosteric kinetics.

[1] = Metabolism and kinetics in pooled HLMs; type: in vitro ADME, human; conditions: for K m of N-des-ethylation: HLMs 0.4 mg/mL; for microsomal CLint: pooled human liver microsomes
Method: BYZX (20 µM) was incubated in a 200 µL of reaction buffer solution containing 0.1 M Tris-HCl (pH 7.4), 0.15 M MgCl2, NADPH-generating system (9.7 mM dl-isocitrate trisodium and 0.07 unit of isocitrate dehydrogenase), and 1 mg/mL pooled HLMs. The incubation mixture was preincubated at 37°C for 5 min, and then the reaction was initiated by adding 4 µL of NADP/NADPH solution (0.026 M NADP and 0.012 M NADPH in 1% NaHCO3 solution). After incubation at 37°C for 120 min, 200 µL of cold methanol was added to terminate the reaction and precipitate the protein. The mixture was vortexed for 1 min and centrifuged at 13 000 rpm for 15 min. 7 µL of the supernatant was injected into the LC system.
(§3) Moreover, very small amount of M3 was isolated from pooled incubation samples by HPLC-UV on an ODS column with a gradient solvent system consisting of methanol and 10 mM ammonium formate in water. Then, M3 were incubated in pooled HLMs, recombinant CYPs, and human cytosol to confirm the further metabolism.
as §2

CYP3A4 [2] = target: T2, CYP3A4 (Homo sapiens, UniProt P08684); test: Incubation and kinetics with recombinant human CYP3A4; type: in vitro ADME; set-up: purchased BD Gentest (Woburn, MA); host or cells: baculovirus-insect cells; conditions: for K m of N-des-ethylation: recombinant CYP3A4 0.04 mg/mL, BYZX fitted to allosteric sigmoidal kinetics
Method: as §1, §2
Target sequence in this assay (P08684 whole entry): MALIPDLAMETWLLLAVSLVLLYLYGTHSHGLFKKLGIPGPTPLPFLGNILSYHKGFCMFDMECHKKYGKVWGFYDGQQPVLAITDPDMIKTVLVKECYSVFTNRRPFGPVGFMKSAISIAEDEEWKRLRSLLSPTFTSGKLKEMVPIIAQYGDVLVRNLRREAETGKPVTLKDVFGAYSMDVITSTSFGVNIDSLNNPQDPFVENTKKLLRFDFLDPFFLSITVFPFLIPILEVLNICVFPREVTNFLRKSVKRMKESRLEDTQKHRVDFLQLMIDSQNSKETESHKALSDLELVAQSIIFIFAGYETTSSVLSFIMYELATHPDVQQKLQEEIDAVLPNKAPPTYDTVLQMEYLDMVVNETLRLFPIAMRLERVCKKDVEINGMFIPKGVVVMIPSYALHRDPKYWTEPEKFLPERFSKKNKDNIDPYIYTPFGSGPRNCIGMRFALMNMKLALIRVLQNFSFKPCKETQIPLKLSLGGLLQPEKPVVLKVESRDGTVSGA

[3] = tested on: formation of M2 from BYZX in HLMs; test: Inhibition of BYZX hydrogenation in HLMs; type: in vitro ADME, human; conditions: 20 µM BYZX
Method: (§4) Some reductase inhibitors and substrate were used to inhibit the hydrogenate reaction of BYZX. 20 µM BYZX was incubated with 100 µM dicoumarol in human liver cytosol and was incubated with 100 µM benzylideneacetone and with 20 µM finasteride in HLMs, respectively.

[4] = tested on: formation of M2 from BYZX in human liver cytosol; test: in vitro; type: in vitro ADME; conditions: 100 µM inhibitor, 20 µM BYZX, human liver cytosol (Fig. 6B)
Method: as §4

[5] = tested on: reductase-mediated hydrogenation of BYZX (formation of M2); test: in vitro; type: in vitro ADME, human; conditions: human
Method: as §4

[6] = Metabolism and kinetics in human liver cytosol; type: in vitro ADME
Method: as §3, §2
Estimation of the kinetics for BYZX hydrogenation in human liver cytosol was similar to what described above. BYZX in a series of concentration (5.0, 10.0, 20.0, 40.0, 100.0, 150.0, 200.0 µM) were incubated with 0.2 mg/mL of cytosol protein for 20 min at 37°C, and the different formation rates of M2 were assayed for estimating the kinetic parameters.

[7] = target: T3, NADPH-CYP450 oxidoreductase (OR) and cytochrome b5 (cyt b5) (Homo sapiens, UniProt P00167+P16435); test: Incubation with recombinant OR and cyt b5 (Sf9 expression); type: in vitro ADME
T3 construct: made in house; host or cells: Sf9 insect cells
Method: In order to determine whether OR and cyt b5 are the reductases of BYZX, OR and cyt b5 were expressed individually and together in our previous method using insect cell expression system, Sf9 cell line, [14]. The incubation method was similar to what described above. The production of M2 was determined.

[8] = tested on: chemical-induced learning and memory impairments; conditions: rodents; cited from earlier work
PC12 cells = conditions: cited from earlier work
pooled HLMs = test: Initial estimation of metabolism enzymes in pooled HLMs; type: in vitro ADME, human; conditions: 5 mM ABT preincubated 30 min, 0.4 mg/mL pooled HLMs, 20 µM BYZX
Method: Initial estimation of the main metabolic pathway in HLMs was performed using specific inhibitors, or by altering experimental conditions, to identify CYP and non-CYP metabolic pathway. Three groups of incubation of BYZX with pooled HLMs under different additive processes were carried out in parallel to identify whether the metabolites produced were mediated by CYPs or not. In Group I, the incubation mixture including 0.4 mg/mL pooled HLMs protein, 4 µL of NADP/NADPH solution (0.026 M NADP and 0.012 M NADPH in 1% NaHCO3 solution) and 5 mM 1-aminobenzotriazole (ABT, 1 M dissolved in dimethyl sulfoxide, DMSO) were preincubated at 37°C for 30 min, and then 20 µM BYZX was added into the incubation system (n = 2). In Group II, the incubation mixture including 0.4 mg/mL pooled HLMs protein were preincubated at 45°C for 10 min to abolish the activities of the flavin-containing monooxygenases (FMOs), and then 20 µM BYZX was added and precincubated at 37°C for 5 min, and then 4 µL of NADP/NADPH solution was added to initiate the reaction (n = 2). In Group III, the incubation mixture including 0.4 mg/mL pooled HLMs protein and 20 µM BYZX were preincubated at 37°C for 5 min, and then 4 µL of NADP/NADPH solution or […] NaHCO3 solution were added to initiate the reaction (n = 2). […]

CYP3A4 [9] = target: T2, CYP3A4; test: in vitro; conditions: pooled human liver microsomes, probe M2 20 µM (formation of M1)
Target sequence in this assay (P08684 2-503): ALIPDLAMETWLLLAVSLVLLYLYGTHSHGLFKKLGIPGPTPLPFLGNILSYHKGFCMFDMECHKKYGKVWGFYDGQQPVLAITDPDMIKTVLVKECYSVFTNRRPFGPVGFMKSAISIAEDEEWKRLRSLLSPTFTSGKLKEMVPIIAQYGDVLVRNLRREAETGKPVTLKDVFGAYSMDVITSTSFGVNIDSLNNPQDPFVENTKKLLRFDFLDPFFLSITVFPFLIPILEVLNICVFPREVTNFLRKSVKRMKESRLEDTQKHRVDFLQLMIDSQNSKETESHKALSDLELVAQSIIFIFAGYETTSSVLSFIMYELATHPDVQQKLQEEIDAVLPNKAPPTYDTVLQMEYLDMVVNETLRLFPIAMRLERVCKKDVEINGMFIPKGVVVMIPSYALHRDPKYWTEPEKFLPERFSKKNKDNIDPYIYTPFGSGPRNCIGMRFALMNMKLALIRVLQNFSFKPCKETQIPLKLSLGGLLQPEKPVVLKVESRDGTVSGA

## CCN(CC)Cc1ccc(CC2Cc3cc(OC)c(OC)cc3C2=O)cc1 (stereo not shown) [M2]
CYP2C8; human, recombinant human CYP2C8 (baculovirus-insect cell-expressed), recombinant CYP2C8, read-out: Cl int of N-des-ethylation (M1 formation)
  microsomal CLint: 2.58 µL/min/mg
CYP2C8; recombinant CYP2C8
  V max of N-des-ethylation (M1 formation): 0.370±0.024 nmol/min/mg protein
CYP2C8
  K m of N-des-ethylation: 143.2 ± 17.7 µM
[1]; HLMs
  V max of N-des-ethylation (M1 formation): 0.209±0.010 nmol/min/mg protein
[1]
  K m of N-des-ethylation: 105.7 ± 10.9 µM
[1]; human, pH 7.4, HLMs, read-out: Cl int of N-des-ethylation (M1 formation)
  microsomal CLint: 1.98 µL/min/mg
CYP3A4 [2]; human, recombinant human CYP3A4 (baculovirus-insect cell-expressed), recombinant CYP3A4, read-out: Cl int of N-des-ethylation (M1 formation)
  microsomal CLint: 6.01 µL/min/mg
CYP3A4 [2]; recombinant CYP3A4
  V max of N-des-ethylation (M1 formation): 0.392±0.016 nmol/min/mg protein
CYP3A4 [2]
  K m of N-des-ethylation: 65.2 ± 7.2 µM
CYP3A4 [2]; recombinant CYP3A4 vs CYP2C8
  Cl int of CYP3A4 compared with that of CYP2C8 (M1 formation): over 2 folds

## O=c1oc2ccccc2c(O)c1Cc1c(O)c2ccccc2oc1=O [dicoumarol]
[3]; 0.2 mg/mL protein, 20 min
  IC50: 7.7 ± 1.2 µM
[4]
  Effect on hydrogenation of BYZX (formation of M2): dramatic inhibitory effect
[5]
  IC50 at 20 min: 1.6 ± 1.3 µM

## CCN(CC)Cc1ccc(/C=C2\Cc3cc(OC)c(OC)cc3C2=O)cc1 [BYZX, (E)-2-(4-((diethylamino)methyl)benzylidene)-5,6-dimethoxy-2,3-dihydroinden-one]
CYP2C8; recombinant CYP2C8
  Cl int of N-des-ethylation (M3 formation): 1.59 A.U.
  V max of N-des-ethylation (M3 formation): 0.099±0.005 A.U.
CYP2C8
  K m of N-des-ethylation: 62.1 ± 8.2 µM
[1]; HLMs
  K m of hydrogenation (M2 formation): 21.4 ± 1.4 µM
  V max of hydrogenation (M2 formation): 0.252±0.008 nmol/min/mg protein
[1]
  K m of N-des-ethylation: 46.4 ± 5.9 µM
[1]; human, microsomes
  Cl int of N-des-ethylation (M3 formation): 2.39 A.U.
[1]; human, pH 7.4
  V max of N-des-ethylation (M3 formation): 0.111±0.008 A.U.
[1]; human, pH 7.4, HLMs, read-out: Cl int of hydrogenation (M2 formation)
  microsomal CLint: 11.8 µL/min/mg
[6]; cytosol vs HLMs
  K m of hydrogenation in cytosol relative to HLMs: about 2 times
  Rate of hydrogenation (V max) in human liver cytosol relative to HLMs: about 15 times
[6]; human liver cytosol
  K m of hydrogenation (M2 formation): 38.9 ± 2.5 µM
  V max of hydrogenation (M2 formation): 3.56±0.07 nmol/min/mg protein
[7]; blank Sf9 cells S9
  Metabolism into M2 in S9 fraction of blank Sf9 cells: rapidly metabolized into M2
[7]; compared with blank Sf9 S9
  Rate of formation of M2 in mixture of recombinant OR and cyt b5: significantly decreased
[8]
  Effect on chemical-induced learning and memory impairments: significantly improve
PC12 cells
  Effect on apoptosis induced by hydrogen peroxide: protect
CYP3A4 [2]; recombinant CYP3A4
  Cl int of N-des-ethylation (M3 formation): 6.76 A.U.
  V max of N-des-ethylation (M3 formation): 3.3±0.4 A.U.
CYP3A4 [2]
  K m of N-des-ethylation: 488.2 ± 160.2 µM

## Nn1nnc2ccccc21 [ABT, 1-aminobenzotriazole]
Pooled HLMs
  Effect on formation of desethyl metabolite M3 from BYZX: extensively suppressed
  Effect on hydrogenation of BYZX to M2: not significantly inhibited

## COc1ccc2c(c1)c(CC(=O)O)c(C)n2C(=O)c1ccc(Cl)cc1 [indomethacin]
[5]
  IC50 at 20 min: 18.8 ± 1 µM

## CC(C)(C)NC(=O)[C@H]1CC[C@H]2[C@@H]3CC[C@H]4NC(=O)C=C[C@]4(C)[C@H]3CC[C@]12C [finasteride]
[3]; 20 µM finasteride
  Effect on hydrogenation of BYZX (formation of M2): no inhibitory effect

## CC(=O)C=Cc1ccccc1 [benzylideneacetone]
[4]
  Effect on hydrogenation of BYZX (formation of M2): significantly suppressed

## CC(=O)N1CCN(c2ccc(OCC3COC(Cn4ccnc4)(c4ccc(Cl)cc4Cl)O3)cc2)CC1 (stereo not shown) [ketoconazole]
CYP3A4 [9]
  IC50: 9.8 ± 1.2 µM

## CCNCc1ccc(/C=C2\Cc3cc(OC)c(OC)cc3C2=O)cc1 [M3]
[1]; human
  Further metabolism of M3: could be further biotransformed into M1
